We go through 23 compounds from patent US20210395256A1, “TYROSINE KINASE INHIBITORS, COMPOSITIONS AND METHODS THERE OF” (Betta Pharmaceuticals Co., Ltd., priority 2018, published 2021).

A value given as a limit tells only on which side of the number the result lay.

For orientation: IC50 means the point on the concentration scale where inhibition reaches its midpoint.

Sequence of TrkA kinase (P04629 33-796): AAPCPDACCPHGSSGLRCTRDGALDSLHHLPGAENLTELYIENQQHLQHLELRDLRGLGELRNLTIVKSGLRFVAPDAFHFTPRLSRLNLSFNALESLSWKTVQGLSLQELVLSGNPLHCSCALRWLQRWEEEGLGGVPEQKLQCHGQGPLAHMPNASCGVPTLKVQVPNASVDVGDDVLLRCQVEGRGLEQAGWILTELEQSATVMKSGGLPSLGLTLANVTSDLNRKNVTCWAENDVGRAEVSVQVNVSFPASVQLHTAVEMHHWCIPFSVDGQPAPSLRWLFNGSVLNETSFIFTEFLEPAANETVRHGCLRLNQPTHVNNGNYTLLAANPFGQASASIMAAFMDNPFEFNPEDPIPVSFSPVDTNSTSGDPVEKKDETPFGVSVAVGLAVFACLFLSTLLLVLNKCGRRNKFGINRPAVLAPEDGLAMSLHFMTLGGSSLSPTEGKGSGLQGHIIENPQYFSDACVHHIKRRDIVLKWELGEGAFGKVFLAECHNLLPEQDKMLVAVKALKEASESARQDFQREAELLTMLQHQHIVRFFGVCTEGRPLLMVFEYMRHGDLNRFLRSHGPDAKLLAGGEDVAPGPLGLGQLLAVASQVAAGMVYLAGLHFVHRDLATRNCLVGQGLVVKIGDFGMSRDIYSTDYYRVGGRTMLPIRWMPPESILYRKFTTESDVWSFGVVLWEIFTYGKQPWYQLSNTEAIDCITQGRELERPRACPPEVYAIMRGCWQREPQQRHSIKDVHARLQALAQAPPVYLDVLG

One test has as its target TrkA kinase (Homo sapiens, UniProt P04629). Briefly: TrkA kinase assay (mobility shift assay). Format: biochemical. The following applies: class symbols; read-out: Trk A Kinase IC50. How it is done:
Example 201 TrkA Kinase Assay
Mobility shift assay was used to determine the inhibitory activity of compounds against TrkA kinase. Assay procedures are as follows:
1× Kinase base buffer (50 mM HEPES, pH 7.5; 0.0015% Brij-35)
Stop buffer (100 mM HEPES, pH 7.5; 0.015% Brij-35; 0.2% Coating Reagent #3; 50 mM EDTA)
1) Dilute the compound to 50× of the final desired highest inhibitor concentration in reaction by 100% DMSO. Transfer 100 μl of this compound dilution to a well in a 96-well plate.
2) For all compounds, transfer the compound in tubes to one well on 96-well storage plate and serially dilute the compound by transferring 30 μl to 60 μl of 100% DMSO in the next well and so forth for a total of 10 concentrations.
3) Add 100 μl of 100% DMSO to two empty wells for no compound control and no enzyme control in the same 96-well plate. Mark the plate as source plate.
4) Prepare intermediate plate
Transfer 10 μl of compound from source plate to a new 96-well plate as the intermediate plate
Add 90 µl of 1× kinase buffer to each well of the intermediate plate.
Mix the compounds in intermediate plate for 10 min on shaker.
1) Transfer 5 μl of each well from the 96-well intermediate plate to a 384-well plate in duplicates. For example, A1 of the 96-well plate is transferred to A1 and A2 of the 384-well plate. A2 of the 96-well plate is transferred to A3 and A4 of the 384-well plate, and so on.
1) Prepare 2.5× enzyme solution
Add kinase in 1× kinase base buffer.
2) Prepare 2.5× peptide solution Add FAM-labeled peptide and ATP in the 1× kinase base buffer.
3) Assay plate already contains 5 μl of compound in 10% DMSO.
4) Transfer 2.5× enzyme solution to the assay plate
Add 10 μl of 2.5× enzyme solution to each well of the 384-well assay plate.
5) Incubate at room temperature for 10 min.
6) Transfer 2.5× peptide solution to the assay plate
Add 10 μl of 2.5× peptide solution to each well of the 384-well assay plate.
Kinase reaction conditions are shown as Table 11:
7) Kinase reaction and stop
Incubate at 28° C. for specified period of time.
Add 25 μl of stop buffer to stop reaction.
1) Copy conversion data from Caliper program.
2) Convert conversion values to inhibition values.
Percent inhibition=(max-conversion)/(max-min)*100.
“max” stands for DMSO control; “min” stands for low control.
3) Fit the data in XLFit excel add-in version 5.4.0.8 to obtain IC50 values.
Equation used is: Y=Bottom+(Top-Bottom)/(1+(IC50/X)^HillSlope)
`Fc1ccc(F)c([C@H]2CCCN2c2ccn3ncc(-c4nnc(-c5ccc(N6CCOCC6)cc5)[nH]4)c3n2)c1` [Compound 1, (R)-4-(4-(5-(5-(2-(2,5-difluorophenyl)pyrrolidin-1-yl)pyrazolo[1,5-a]pyrimidin-3-yl)-4H-1,2,4-triazol-3-yl)phenyl)morpholine]: the IC50 is at most 10 nM.
As for `Fc1ccc(F)c([C@H]2CCCN2c2ccn3ncc(-c4nnc(C5CCOC5)[nH]4)c3n2)c1` (stereo partly drawn) [Compound 3, 5-((R)-2-(2,5-difluorophenyl)pyrrolidin-1-yl)-3-(5-(tetrahydrofuran-3-yl)-4H-1,2,4-triazol-3-yl)pyrazolo[1,5-a]pyrimidine], the IC50 is 10 to 50 nM.
Turning to `Fc1ccc(F)c([C@H]2CCCN2c2ccn3ncc(-c4nnc(-c5ccnc(N6CCOCC6)c5)[nH]4)c3n2)c1` [Compound 6, (R)-4-(4-(5-(5-(2-(2,5-difluorophenyl)pyrrolidin-1-yl)pyrazolo[1,5-a]pyrimidin-3-yl)-4H-1,2,4-triazol-3-yl)pyridin-2-yl)morpholine], the half-inhibitory concentration (IC50) was at most 10 nM.
With `Fc1ccc(F)c([C@H]2CCCN2c2ccn3ncc(-c4nnc(C5CCN5)[nH]4)c3n2)c1` (stereo partly drawn) [Compound 15, 3-(5-(azetidin-2-yl)-4H-1,2,4-triazol-3-yl)-5-((R)-2-(2,5-difluorophenyl)pyrrolidin-1-yl)pyrazolo[1,5-a]pyrimidine], the IC50 is over 50 nM.
With `OC1CC[C@H](c2nnc(-c3cnn4ccc(N5CCC[C@@H]5c5cc(F)ccc5F)nc34)[nH]2)C1` (stereo partly drawn) [Compound 19, (3S)-3-(5-(5-((R)-2-(2,5-difluorophenyl)pyrrolidin-1-yl)pyrazolo[1,5-a]pyrimidin-3-yl)-4H-1,2,4-triazol-3-yl)cyclopentan-1-ol], the half-inhibitory concentration (IC50) was at most 10 nM.
Regarding `Cn1c(-c2ccnc(N3CCC(O)CC3)c2)nnc1-c1cnn2ccc(N3CCC[C@@H]3c3cc(F)ccc3F)nc12` [Compound 21, (R)-1-(4-(5-(5-(2-(2,5-difluorophenyl)pyrrolidin-1-yl)pyrazolo[1,5-a]pyrimidin-3-yl)-4-methyl-4H-1,2,4-triazol-3-yl)pyridin-2-yl)piperidin-4-ol], the IC50 is over 50 nM.
Still for that read-out and setting: under `C[C@](O)(c1nnc(-c2cnn3ccc(N4CCC[C@@H]4c4cc(F)ccc4F)nc23)[nH]1)C(F)(F)F` [Compound 25, (S)-2-(5-(5-((R)-2-(2,5-difluorophenyl)pyrrolidin-1-yl)pyrazolo[1,5-a]pyrimidin-3-yl)-4H-1,2,4-triazol-3-yl)-1,1,1-trifluoropropan-2-ol] stands 10 to 50 nM.
With `OC(c1nnc(-c2cnn3ccc(N4CCC[C@@H]4c4cc(F)ccc4F)nc23)[nH]1)(C(F)(F)F)C(F)(F)F` [Compound 27, (R)-2-(5-(5-(2-(2,5-difluorophenyl)pyrrolidin-1-yl)pyrazolo[1,5-a]pyrimidin-3-yl)-4H-1,2,4-triazol-3-yl)-1,1,1,3,3,3-hexafluoropropan-2-ol], the 50% inhibitory concentration (IC50) is over 50 nM.
As to `CCC(O)(c1nnc(-c2cnn3ccc(N4CCC[C@@H]4c4cc(F)ccc4F)nc23)[nH]1)C(F)(F)F` (stereo partly drawn) [Compound 28, 2-(5-(5-((R)-2-(2,5-difluorophenyl)pyrrolidin-1-yl)pyrazolo[1,5-a]pyrimidin-3-yl)-4H-1,2,4-triazol-3-yl)-1,1,1-trifluorobutan-2-ol], the IC50 is over 50 nM.
In the case of `Fc1ccc(F)c([C@H]2CCCN2c2ccn3ncc(-c4nnc(C5CCOCC5)[nH]4)c3n2)c1` [Compound 32, (R)-5-(2-(2,5-difluorophenyl)pyrrolidin-1-yl)-3-(5-(tetrahydro-2H-pyran-4-yl)-4H-1,2,4-triazol-3-yl)pyrazolo[1,5-a]pyrimidine], the IC50 was in the range of 10 to 50 nM.
Turning to `OC1CCNC(c2nnc(-c3cnn4ccc(N5CCC[C@@H]5c5cc(F)ccc5F)nc34)[nH]2)C1` (stereo partly drawn) [Compound 35, 2-(5-(5-((R)-2-(2,5-difluorophenyl)pyrrolidin-1-yl)pyrazolo[1,5-a]pyrimidin-3-yl)-4H-1,2,4-triazol-3-yl)piperidin-4-ol], the IC50 was in the range of 10 to 50 nM.

Staying with this test, now noted: numeric values; read-out: Trk A Kinase IC50.
Consider `OC1CCN(c2cc(-c3nnc(-c4cnn5ccc(N6CCC[C@@H]6c6cc(F)ccc6F)nc45)[nH]3)ccn2)CC1` [Compound 2, (R)-1-(4-(5-(5-(2-(2,5-difluorophenyl)pyrrolidin-1-yl)pyrazolo[1,5-a]pyrimidin-3-yl)-4H-1,2,4-triazol-3-yl)pyridin-2-yl)piperidin-4-ol], for which the IC50 was 0.43 nM.
Consider `O[C@H]1CC[C@@H](c2nnc(-c3cnn4ccc(N5CCC[C@@H]5c5cc(F)ccc5F)nc34)[nH]2)CC1` [Compound 5, (1S,4s)-4-(5-(5-((R)-2-(2,5-difluorophenyl)pyrrolidin-1-yl)pyrazolo[1,5-a]pyrimidin-3-yl)-4H-1,2,4-triazol-3-yl)cyclohexan-1-ol], for which the IC50 turned out to be 1.8 nM.
With `CC(C)(C)OC(=O)N1CCC1c1nnc(-c2cnn3ccc(N4CCC[C@@H]4c4cc(F)ccc4F)nc23)[nH]1` (stereo partly drawn) [Compound 20, tert-butyl 2-(5-(5-((R)-2-(2,5-difluorophenyl)pyrrolidin-1-yl)pyrazolo[1,5-a]pyrimidin-3-yl)-4H-1,2,4-triazol-3-yl)azetidine-1-carboxylate], the IC50 was determined as 47 nM.
On the same count and under the same terms, to `CC(O)(Cc1nnc(-c2cnn3ccc(N4CCC[C@@H]4c4cc(F)ccc4F)nc23)[nH]1)C(F)(F)F` (stereo partly drawn) [Compound 29, 3-(5-(5-((R)-2-(2,5-difluorophenyl)pyrrolidin-1-yl)pyrazolo[1,5-a]pyrimidin-3-yl)-4H-1,2,4-triazol-3-yl)-1,1,1-trifluoro-2-methylpropan-2-ol] belongs 1.4 nM; to `CC(C)(CO)c1nnc(-c2cnn3ccc(N4CCC[C@@H]4c4cc(F)ccc4F)nc23)[nH]1` [Compound 33, (R)-2-(5-(5-(2-(2,5-difluorophenyl)pyrrolidin-1-yl)pyrazolo[1,5-a]pyrimidin-3-yl)-4H-1,2,4-triazol-3-yl)-2-methylpropan-1-ol], 2.41 nM.
On to `OC12CC3CC(C1)CC(c1nnc(-c4cnn5ccc(N6CCC[C@@H]6c6cc(F)ccc6F)nc45)[nH]1)(C3)C2` [Compound 37, (1R,3r)-3-(5-(5-((R)-2-(2,5-difluorophenyl)pyrrolidin-1-yl)pyrazolo[1,5-a]pyrimidin-3-yl)-4H-1,2,4-triazol-3-yl)adamantan-1-ol], for which the IC50 came out at 1.57 nM.
On the same count and under the same terms, under `CN1CCC(c2nnc(-c3cnn4ccc(N5CCC[C@@H]5c5cc(F)ccc5F)nc34)[nH]2)CC1` [Compound 38, (R)-5-(2-(2,5-difluorophenyl)pyrrolidin-1-yl)-3-(5-(1-methylpiperidin-4-yl)-4H-1,2,4-triazol-3-yl)pyrazolo[1,5-a]pyrimidine] stands 11.7 nM; under `Fc1ccc(F)c([C@H]2CCCN2c2ccn3ncc(-c4nnc(C5CCC(F)(F)CC5)[nH]4)c3n2)c1` [Compound 41, (R)-3-(5-(4,4-difluorocyclohexyl)-4H-1,2,4-triazol-3-yl)-5-(2-(2,5-difluorophenyl)pyrrolidin-1-yl)pyrazolo[1,5-a]pyrimidine], 3.92 nM.
Consider `O[C@H](c1ccccc1)c1nnc(-c2cnn3ccc(N4CCC[C@@H]4c4cc(F)ccc4F)nc23)[nH]1` [Compound 42, (R)-(5-(5-((R)-2-(2,5-difluorophenyl)pyrrolidin-1-yl)pyrazolo[1,5-a]pyrimidin-3-yl)-4H-1,2,4-triazol-3-yl)(phenyl)methanol], for which the IC50 stood at 3.9 nM.
Still for that read-out and setting: under `OCC12CC(c3nnc(-c4cnn5ccc(N6CCC[C@@H]6c6cc(F)ccc6F)nc45)[nH]3)(C1)C2` [Compound 43, (R)-(3-(5-(5-(2-(2,5-difluorophenyl)pyrrolidin-1-yl)pyrazolo[1,5-a]pyrimidin-3-yl)-4H-1,2,4-triazol-3-yl)bicyclo[1.1.1]pentan-1-yl)methanol] stands 2.51 nM; under `NC12CC(c3nnc(-c4cnn5ccc(N6CCC[C@@H]6c6cc(F)ccc6F)nc45)[nH]3)(C1)C2` [Compound 44, (R)-3-(5-(5-(2-(2,5-difluorophenyl)pyrrolidin-1-yl)pyrazolo[1,5-a]pyrimidin-3-yl)-4H-1,2,4-triazol-3-yl)bicyclo[1.1.1]pentan-1-amine], 5.28 nM.
On the same count and under the same terms, under `OB1OCc2ccc(-c3nnc(-c4cnn5ccc(N6CCC[C@@H]6c6cc(F)ccc6F)nc45)[nH]3)cc21` [Compound 45, (R)-6-(5-(5-(2-(2,5-difluorophenyl)pyrrolidin-1-yl)pyrazolo[1,5-a]pyrimidin-3-yl)-4H-1,2,4-triazol-3-yl)benzo[c][1,2]oxaborol-1(3H)-ol] stands 0.8 nM.
